doi:10.1101/2025.01.28.635346v1 (bioRxiv, 2025)
pEC50, pIC50: −log10 of the molar value. Bridge positions count the residues as written; N and C are the ends. Side chains are listed from the residue outwards. Peptide text beside a SMILES is read from it. * marks the point of attachment. Butanoyl(4-(4-I-phenyl)) = O=C(CCCc1ccc(I)cc1)*; PEG2 = NCCOCCOCCC(=O)O

Legend:
integrin αvβ6 = integrin αvβ6 (Homo sapiens, UniProt P06756+P18564); assay: ELISA competition assay, integrin αvβ6 binding to LAP; settings: αvβ6 IC50, ELISA competition vs LAP; mean, n ≥ 3
integrin αvβ5 = integrin αvβ5 (Homo sapiens, UniProt P06756+P18084); assay: ELISA competition assay, integrin αvβ5; assay type: binding
carboxypeptidase Y = carboxypeptidase Y (Saccharomyces cerevisiae, UniProt P00729); assay: Proteolysis test, carboxypeptidase Y treatment for 4 h, HPLC; assay type: in vitro ADME
[1] = Plasma stability, human plasma; assay type: in vitro ADME
[2] = Hepatocyte stability, cryopreserved mouse hepatocytes; assay type: in vitro ADME
ADORA2A = ADORA2A (Homo sapiens, UniProt P29274); assay: Safetyscan47 GPCR Calcium Flux, Agonist; assay type: cell-based; settings: for Emax: read-out: Max Response
CHRM1 = target: T1, CHRM1 (Homo sapiens, UniProt P11229); assay: Safetyscan47 GPCR Calcium Flux, Agonist; assay type: cell-based; settings: for Emax: read-out: Max Response
T1 sequence (P11229 1-460): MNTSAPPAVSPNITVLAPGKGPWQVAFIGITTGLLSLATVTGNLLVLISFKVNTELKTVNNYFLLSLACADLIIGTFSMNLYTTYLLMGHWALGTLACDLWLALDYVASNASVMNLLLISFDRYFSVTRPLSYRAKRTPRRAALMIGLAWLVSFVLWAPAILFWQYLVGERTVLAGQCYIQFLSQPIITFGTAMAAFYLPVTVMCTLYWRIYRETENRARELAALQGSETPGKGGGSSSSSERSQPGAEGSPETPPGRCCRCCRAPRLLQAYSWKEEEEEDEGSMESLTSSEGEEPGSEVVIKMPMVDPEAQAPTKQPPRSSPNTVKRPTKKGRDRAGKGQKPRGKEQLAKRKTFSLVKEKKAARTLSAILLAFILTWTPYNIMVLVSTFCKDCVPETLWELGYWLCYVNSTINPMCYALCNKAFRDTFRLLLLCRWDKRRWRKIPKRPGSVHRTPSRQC

CHRM3 = CHRM3 (Homo sapiens, UniProt P20309); assay: Safetyscan47 GPCR Calcium Flux, Agonist; assay type: cell-based; settings: for Emax: read-out: Max Response
EDNRA = target: T2, EDNRA (Homo sapiens, UniProt P25101); assay: Safetyscan47 GPCR Calcium Flux, Agonist; assay type: cell-based; settings: for Emax: read-out: Max Response
T2 sequence (P25101 21-427): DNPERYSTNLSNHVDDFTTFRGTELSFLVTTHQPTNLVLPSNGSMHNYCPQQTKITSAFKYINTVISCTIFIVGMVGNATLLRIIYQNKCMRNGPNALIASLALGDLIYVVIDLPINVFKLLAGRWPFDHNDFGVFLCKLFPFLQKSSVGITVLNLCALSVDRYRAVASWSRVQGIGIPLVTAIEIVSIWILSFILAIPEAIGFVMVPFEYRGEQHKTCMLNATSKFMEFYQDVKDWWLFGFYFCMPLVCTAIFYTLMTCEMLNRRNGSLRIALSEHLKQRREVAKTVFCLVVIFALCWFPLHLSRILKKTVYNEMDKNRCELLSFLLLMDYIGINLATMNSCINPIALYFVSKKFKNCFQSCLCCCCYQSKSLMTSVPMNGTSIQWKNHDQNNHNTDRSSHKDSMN

CNR1 = CNR1 (Homo sapiens, UniProt P21554); assay: Safetyscan47 GPCR cAMP, Agonist; assay type: cell-based; settings: for Emax: read-out: Max Response
DRD1 = DRD1 (Homo sapiens, UniProt P21728); assay: Safetyscan47 GPCR cAMP, Antagonist; assay type: cell-based; settings: for Emax: read-out: Max Response
CAV1.2 = CAV1.2 (Homo sapiens, UniProt Q13936); assay: Safetyscan47 Ion Channel, Blocker; assay type: cell-based
NMDAR (1A/2B) = NMDAR (1A/2B) (Homo sapiens, UniProt Q05586+Q13224); assay: Safetyscan47 Ion Channel, Blocker; assay type: cell-based; settings: for Emax: read-out: Max Response
VEGFR2 = VEGFR2 (Homo sapiens, UniProt P35968); assay: Safetyscan47 Kinases Binding, Inhibitor; settings: for Emax: read-out: Max Response
COX2 = target: T3, COX2 (Homo sapiens, UniProt P35354); assay: Safetyscan47 Non-Kinase Enzymes Enzymatic, Inhibitor; assay type: biochemical; settings: for Emax: read-out: Max Response
T3 sequence (P35354 18-604): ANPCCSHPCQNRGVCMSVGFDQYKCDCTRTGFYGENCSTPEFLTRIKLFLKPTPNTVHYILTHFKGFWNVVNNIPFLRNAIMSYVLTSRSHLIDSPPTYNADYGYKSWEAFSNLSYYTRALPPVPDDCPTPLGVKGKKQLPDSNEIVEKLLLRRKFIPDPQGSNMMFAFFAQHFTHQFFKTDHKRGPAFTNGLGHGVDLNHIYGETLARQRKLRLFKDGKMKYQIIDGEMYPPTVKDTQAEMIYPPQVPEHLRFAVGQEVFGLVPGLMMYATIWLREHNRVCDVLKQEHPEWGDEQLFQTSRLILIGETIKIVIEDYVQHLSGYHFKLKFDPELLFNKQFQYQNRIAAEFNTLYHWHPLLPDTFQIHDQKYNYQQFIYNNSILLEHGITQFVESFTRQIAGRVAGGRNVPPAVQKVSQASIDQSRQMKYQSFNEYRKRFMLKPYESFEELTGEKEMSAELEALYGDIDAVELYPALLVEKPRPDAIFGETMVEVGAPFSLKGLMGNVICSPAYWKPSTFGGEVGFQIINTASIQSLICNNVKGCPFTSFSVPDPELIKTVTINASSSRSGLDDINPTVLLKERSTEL

Sequence of NMDAR (1A/2B) (Q13224 27-1484, other chains not shown): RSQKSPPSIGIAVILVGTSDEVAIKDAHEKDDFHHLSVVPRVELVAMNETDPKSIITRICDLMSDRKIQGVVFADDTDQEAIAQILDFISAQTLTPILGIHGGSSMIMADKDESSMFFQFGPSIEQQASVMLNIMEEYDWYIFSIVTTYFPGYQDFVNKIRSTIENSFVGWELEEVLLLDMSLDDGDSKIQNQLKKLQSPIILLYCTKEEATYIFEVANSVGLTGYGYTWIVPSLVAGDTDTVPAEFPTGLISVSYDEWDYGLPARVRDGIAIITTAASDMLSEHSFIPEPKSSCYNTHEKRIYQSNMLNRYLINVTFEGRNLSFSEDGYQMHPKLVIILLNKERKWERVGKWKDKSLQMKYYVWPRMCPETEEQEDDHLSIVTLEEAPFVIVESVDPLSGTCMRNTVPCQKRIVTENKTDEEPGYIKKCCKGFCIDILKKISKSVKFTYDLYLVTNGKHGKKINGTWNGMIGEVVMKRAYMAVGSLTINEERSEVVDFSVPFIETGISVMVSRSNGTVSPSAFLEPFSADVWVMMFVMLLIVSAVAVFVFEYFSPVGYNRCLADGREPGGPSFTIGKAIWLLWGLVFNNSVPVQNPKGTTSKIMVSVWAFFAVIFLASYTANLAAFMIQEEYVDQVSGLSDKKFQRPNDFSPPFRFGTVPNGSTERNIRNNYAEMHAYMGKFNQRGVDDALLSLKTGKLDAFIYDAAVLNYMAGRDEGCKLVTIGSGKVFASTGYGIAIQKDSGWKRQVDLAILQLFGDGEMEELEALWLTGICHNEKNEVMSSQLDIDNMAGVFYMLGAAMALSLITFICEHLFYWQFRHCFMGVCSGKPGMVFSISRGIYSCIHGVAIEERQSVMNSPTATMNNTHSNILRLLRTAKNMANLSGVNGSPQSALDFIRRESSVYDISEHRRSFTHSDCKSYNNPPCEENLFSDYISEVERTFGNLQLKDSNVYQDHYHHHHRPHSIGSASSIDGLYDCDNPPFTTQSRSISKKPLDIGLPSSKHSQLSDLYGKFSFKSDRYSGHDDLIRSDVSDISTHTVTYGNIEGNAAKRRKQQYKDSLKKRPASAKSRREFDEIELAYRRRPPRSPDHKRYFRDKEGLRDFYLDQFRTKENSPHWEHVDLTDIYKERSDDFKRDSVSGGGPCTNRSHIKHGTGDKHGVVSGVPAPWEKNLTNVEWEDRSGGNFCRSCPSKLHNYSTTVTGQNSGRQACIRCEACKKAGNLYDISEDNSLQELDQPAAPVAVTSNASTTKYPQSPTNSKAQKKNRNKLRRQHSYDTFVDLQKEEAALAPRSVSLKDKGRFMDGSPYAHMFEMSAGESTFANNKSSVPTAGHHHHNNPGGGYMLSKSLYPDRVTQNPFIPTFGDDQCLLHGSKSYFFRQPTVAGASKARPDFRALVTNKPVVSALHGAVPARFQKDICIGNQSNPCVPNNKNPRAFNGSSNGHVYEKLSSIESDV
Sequence of CHRM3 (P20309 whole entry): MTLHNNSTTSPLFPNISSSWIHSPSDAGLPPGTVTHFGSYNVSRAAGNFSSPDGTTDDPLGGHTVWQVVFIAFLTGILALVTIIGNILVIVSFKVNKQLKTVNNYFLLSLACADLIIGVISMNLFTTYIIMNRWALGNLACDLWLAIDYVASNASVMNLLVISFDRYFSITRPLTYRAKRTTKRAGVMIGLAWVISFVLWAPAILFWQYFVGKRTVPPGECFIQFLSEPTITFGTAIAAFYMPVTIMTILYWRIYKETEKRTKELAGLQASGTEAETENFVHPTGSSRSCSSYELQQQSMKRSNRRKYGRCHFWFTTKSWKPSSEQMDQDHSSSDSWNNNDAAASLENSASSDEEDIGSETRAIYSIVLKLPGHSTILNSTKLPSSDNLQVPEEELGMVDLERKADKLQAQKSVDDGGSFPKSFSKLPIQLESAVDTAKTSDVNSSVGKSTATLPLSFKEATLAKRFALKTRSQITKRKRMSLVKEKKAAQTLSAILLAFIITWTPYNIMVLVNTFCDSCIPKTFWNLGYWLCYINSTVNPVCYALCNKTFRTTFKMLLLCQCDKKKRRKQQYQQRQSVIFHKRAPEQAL
Sequence of ADORA2A (P29274 whole entry): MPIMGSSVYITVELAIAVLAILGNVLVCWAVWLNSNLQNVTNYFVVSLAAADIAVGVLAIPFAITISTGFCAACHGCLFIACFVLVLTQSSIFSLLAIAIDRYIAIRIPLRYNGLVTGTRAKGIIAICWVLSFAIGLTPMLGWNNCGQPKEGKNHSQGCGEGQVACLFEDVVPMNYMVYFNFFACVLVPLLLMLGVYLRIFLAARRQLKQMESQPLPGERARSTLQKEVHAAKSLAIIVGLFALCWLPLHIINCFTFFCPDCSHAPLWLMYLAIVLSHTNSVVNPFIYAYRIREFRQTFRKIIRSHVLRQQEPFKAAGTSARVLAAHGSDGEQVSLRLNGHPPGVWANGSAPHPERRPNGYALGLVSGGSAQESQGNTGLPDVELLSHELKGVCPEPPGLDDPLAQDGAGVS
Sequence of VEGFR2 (P35968 20-1356): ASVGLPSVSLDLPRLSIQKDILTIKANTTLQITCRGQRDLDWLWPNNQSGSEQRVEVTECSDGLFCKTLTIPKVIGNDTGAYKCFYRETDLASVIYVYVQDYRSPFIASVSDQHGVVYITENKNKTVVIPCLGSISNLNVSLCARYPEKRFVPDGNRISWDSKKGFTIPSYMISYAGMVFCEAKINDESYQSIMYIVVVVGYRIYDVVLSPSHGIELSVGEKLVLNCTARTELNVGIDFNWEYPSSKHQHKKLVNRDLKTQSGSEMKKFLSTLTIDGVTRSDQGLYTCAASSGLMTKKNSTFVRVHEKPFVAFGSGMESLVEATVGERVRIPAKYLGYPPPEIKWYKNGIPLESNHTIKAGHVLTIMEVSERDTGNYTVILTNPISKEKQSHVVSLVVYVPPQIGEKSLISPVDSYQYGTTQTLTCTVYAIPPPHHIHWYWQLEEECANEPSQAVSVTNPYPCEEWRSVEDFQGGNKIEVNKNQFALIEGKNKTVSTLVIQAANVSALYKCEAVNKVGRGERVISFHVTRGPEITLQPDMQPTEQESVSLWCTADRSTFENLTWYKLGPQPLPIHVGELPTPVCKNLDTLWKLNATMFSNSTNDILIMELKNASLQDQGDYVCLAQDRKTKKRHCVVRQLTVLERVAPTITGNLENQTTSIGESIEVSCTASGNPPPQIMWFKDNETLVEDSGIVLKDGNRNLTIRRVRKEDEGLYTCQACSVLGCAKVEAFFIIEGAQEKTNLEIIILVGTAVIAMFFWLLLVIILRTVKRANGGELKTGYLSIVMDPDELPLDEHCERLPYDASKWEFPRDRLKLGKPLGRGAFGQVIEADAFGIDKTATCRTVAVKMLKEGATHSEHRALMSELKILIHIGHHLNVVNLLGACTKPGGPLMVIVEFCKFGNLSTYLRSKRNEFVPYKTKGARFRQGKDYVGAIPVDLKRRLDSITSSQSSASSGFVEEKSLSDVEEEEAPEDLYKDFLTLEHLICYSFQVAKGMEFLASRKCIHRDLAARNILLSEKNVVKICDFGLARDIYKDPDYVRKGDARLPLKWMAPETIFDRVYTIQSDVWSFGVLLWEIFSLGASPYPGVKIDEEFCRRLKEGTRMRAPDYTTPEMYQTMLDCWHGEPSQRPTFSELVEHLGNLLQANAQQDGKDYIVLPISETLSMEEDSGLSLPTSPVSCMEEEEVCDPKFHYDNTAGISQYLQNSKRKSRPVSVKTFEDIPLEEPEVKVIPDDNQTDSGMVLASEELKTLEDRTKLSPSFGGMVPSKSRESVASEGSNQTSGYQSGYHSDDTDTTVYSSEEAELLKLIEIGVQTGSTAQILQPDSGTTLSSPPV
Sequence of DRD1 (P21728 whole entry): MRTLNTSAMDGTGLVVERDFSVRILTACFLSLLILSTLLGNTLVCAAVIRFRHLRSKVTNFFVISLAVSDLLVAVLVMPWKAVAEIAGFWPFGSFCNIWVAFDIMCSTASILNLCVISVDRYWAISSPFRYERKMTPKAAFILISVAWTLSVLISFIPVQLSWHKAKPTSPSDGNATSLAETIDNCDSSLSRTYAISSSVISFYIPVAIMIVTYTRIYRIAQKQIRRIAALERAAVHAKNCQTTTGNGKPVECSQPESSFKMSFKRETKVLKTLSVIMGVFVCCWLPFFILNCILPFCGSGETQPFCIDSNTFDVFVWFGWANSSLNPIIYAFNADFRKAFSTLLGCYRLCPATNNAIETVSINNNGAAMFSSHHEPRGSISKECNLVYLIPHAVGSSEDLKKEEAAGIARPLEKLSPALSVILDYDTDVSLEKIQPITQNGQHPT
Sequence of CNR1 (P21554 whole entry): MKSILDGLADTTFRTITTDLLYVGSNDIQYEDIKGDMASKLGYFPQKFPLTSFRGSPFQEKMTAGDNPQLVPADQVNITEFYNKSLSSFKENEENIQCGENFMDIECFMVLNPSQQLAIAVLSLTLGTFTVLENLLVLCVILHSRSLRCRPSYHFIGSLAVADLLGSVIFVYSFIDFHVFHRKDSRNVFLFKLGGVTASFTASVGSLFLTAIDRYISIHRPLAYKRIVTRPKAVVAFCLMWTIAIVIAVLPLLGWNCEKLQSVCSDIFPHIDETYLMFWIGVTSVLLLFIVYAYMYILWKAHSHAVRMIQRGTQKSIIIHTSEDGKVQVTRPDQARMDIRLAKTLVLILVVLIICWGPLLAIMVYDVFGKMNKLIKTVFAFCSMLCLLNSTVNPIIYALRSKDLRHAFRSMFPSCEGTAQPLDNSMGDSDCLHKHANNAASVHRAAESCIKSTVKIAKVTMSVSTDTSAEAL

| Compound | pIC50 (integrin αvβ6) | pIC50 (integrin αvβ5) | change in HPLC trace after proteolysis (carboxypeptidase Y) | remaining at 0.5 h, 2 μM [1] | remaining at 4 h, 2 μM [1] | half-life at 2 μM [2] | remaining at 1 h, 2 μM [2] | remaining at 3 h, 2 μM [2] | pEC50 (ADORA2A) | Emax (ADORA2A) | pEC50 (CHRM1) | Emax (CHRM1) | pEC50 (CHRM3) | Emax (CHRM3) | pEC50 (EDNRA) | Emax (EDNRA) | pEC50 (CNR1) | Emax (CNR1) | pIC50 (DRD1) | Emax (DRD1) | further results |
| --- | --- | --- | --- | --- | --- | --- | --- | --- | --- | --- | --- | --- | --- | --- | --- | --- | --- | --- | --- | --- | --- |
| CC[C@H](C)[C@H](NC(=O)[C@H](CC(C)C)NC(=O)[C@H](CC(=O)O)NC(=O)CNC(=O)[C@H](CCCNC(=N)N)NC(=O)[C@@H](NC(=O)[C@H](Cc1ccccc1)NC(=O)[C@H](Cc1ccc(O)cc1)NC(=O)[C@@H]1CCC(=O)NCC(=O)NCC(=O)N[C@@H](CCCNC(=N)N)C(=O)NCC(=O)N[C@@H](Cc2c[nH]cn2)C(=O)N[C@@H](C(C)C)C(=O)N2CCC[C@H]2C(=O)N1)C(C)C)C(=O)N[C@@H](CO)C(=O)N[C@@H](Cc1ccccc1)C(=O)N[C@@H](Cc1ccc(O)cc1)C(=O)N[C@@H](CCCCNC(=O)CCOCCOCCNC(=O)CCCc1ccc(I)cc1)C(=O)O [lassotide 47] (GGRGHVPEYFVRGDLISFYK([PEG2-Butanoyl(4-(4-I-phenyl))])-OH; lactam N-8) | 8.49 | < 5.00 | little or no change | 95.1% | 92.2% | 2.69 h | 87.8% | 46.5% | < 4.35 | 0% | < 4.35 | 1.46% | < 4.35 | 1.93% | < 4.35 | 2.94% | < 4.35 | 29.1% | < 4.35 | 35.1% | Emax (CAV1.2): 0%; pIC50 (CAV1.2): < 4.35; pIC50 (NMDAR (1A/2B)): < 4.35; Emax (NMDAR (1A/2B)): 0%; pIC50 (VEGFR2): < 4.35; Emax (VEGFR2): 2.92%; pIC50 (COX2): < 4.35; Emax (COX2): 18.7% |
| CC[C@H](C)[C@H](NC(=O)[C@H](CC(C)C)NC(=O)[C@H](CC(=O)O)NC(=O)CNC(=O)[C@H](CCCNC(=N)N)NC(=O)[C@@H](NC(=O)[C@H](Cc1ccccc1)NC(=O)[C@H](Cc1ccc(O)cc1)NC(=O)[C@@H]1CCC(=O)NCC(=O)NCC(=O)N[C@@H](CCCNC(=N)N)C(=O)NCC(=O)N[C@@H](Cc2c[nH]cn2)C(=O)N[C@@H](C(C)C)C(=O)N2CCC[C@H]2C(=O)N1)C(C)C)C(=O)N[C@@H](CO)C(=O)N[C@@H](Cc1ccccc1)C(=O)N[C@@H](Cc1ccc(O)cc1)C(=O)N[C@@H](CCCCN)C(=O)O [lassotide 36] (GGRGHVPEYFVRGDLISFYK-OH; lactam N-8) | 7.92 | < 5.00 | little or no change | 91.9% | 93.2% | 3.57 h | 98.7% | 56.9% | < 4.35 | 38.9% | < 4.35 | 0.34% | < 4.35 | 2.89% | < 4.35 | 1.75% | < 4.35 | 1.38% | < 4.35 | 11.1% | Emax (CAV1.2): 0%; pIC50 (CAV1.2): < 4.35; pIC50 (NMDAR (1A/2B)): < 4.35; Emax (NMDAR (1A/2B)): 0%; pIC50 (VEGFR2): < 4.35; Emax (VEGFR2): 6.3%; pIC50 (COX2): < 4.35; Emax (COX2): 26.5% |
